Measured values taken from publication PMC4793209 (2016).
Values belong to the compound of their own block, whether it stands above or below them.

Tests used:
Assay in all cases: in-line probing
[1] = test system: 108 yjdF RNA (WT, B. subtilis) (RNA, riboswitch) GGUAUAUGGUAAAGAAUGAAAAAACACGAUUCGGUUGGUAGUCCGGAUGCAUGAUUGAGAAUGUCAGUAACCUUCCCCUCCUCGGGAUGUCCAUCAUUCUUUAAUAUCU; settings: 100 mM KCl, 20 mM MgCl2, 50 mM Tris-HCl pH 8.3, 25 °C
[2] = test system: 108 yjdF M1 (RNA, riboswitch) GGUAUAUGGUAAACUAUGAAAAAACACGAUUCGGUUGGUAGUCCGGAUGCAUGAUUGAGAAUGUCAGUAACCUUCCCCUCCUCGGGAUGUCCAUCAUUCUUUAAUAUCU; settings: 100 mM KCl, 20 mM MgCl2; 50 mM Tris-HCl pH 8.3, 25 °C; affinity reduced against WT
[3] = test system: 108 yjdF M2 (RNA, riboswitch) GGUAUAUGGUAAACUAUGAAAAAACACGAUUCGGUUGGUAGUCCGGAUGCAUGAUUGAGAAUGUCAGUAACCUUCCCCUCCUCGGGAUGUCCAUCAUAGUUUAAUAUCU; settings: 100 mM KCl, 20 mM MgCl2; 50 mM Tris-HCl pH 8.3, 25 °C; near WT affinity
[4] = test system: 108 yjdF M3 (RNA, riboswitch) GGUAUAUGGUAAAGAAUGAAAAAACACGAUUCGGUUGGUCGUCCGGAUGCAUGAUUGAGAAUGUCAGUAACCUUCCCCUCCUCGGGAUGUCCAUCAUUCUUUAAUAUCU; settings: 100 mM KCl, 20 mM MgCl2; 50 mM Tris-HCl pH 8.3, 25 °C
[5] = test system: 107 yjdF RNA (B. endophyticus) (RNA, riboswitch) GGUAUAUGAAAUGAAAAAACACAAUUCGGUUGGUAGUCCGGAUGCAUCAUAAUAAAUGAAUGUCAGUAGCCUUCCCCUCCUCGGGAUGUCCAUCAUUUCAUAGUAUUUU; settings: 100 mM KCl, 20 mM MgCl2; 50 mM Tris-HCl pH 8.3, 25 °C
[6] = apparent, unit in unseen head of Table S1
[7] = 36-48 h, RNA <5 nM, apparent, 10 µM or poorer

SMILES: C[C@H](CCC(=O)NCCS(=O)(=O)O)[C@H]1CC[C@H]2[C@@H]3CC[C@@H]4C[C@H](O)CC[C@]4(C)[C@H]3C[C@H](O)[C@]12C
KD [1, 6]: > 100

SMILES: C[C@H](CCC(=O)O)[C@H]1CC[C@H]2[C@@H]3CC[C@@H]4C[C@H](O)CC[C@]4(C)[C@H]3C[C@H](O)[C@]12C
KD [1, 6]: > 100

SMILES: O=C(O)/C=C/c1ccc(O)c(O)c1
KD [1, 7]: > 10000 nM

SMILES: Cc1cc2nc3c(=O)[nH]c(=O)nc-3n(C[C@H](O)[C@H](O)[C@H](O)CO)c2cc1C
binding ([1]; riboflavin 0-10 µM, weaker than proflavine): yes
binding [4]: no

SMILES: CC(=O)Oc1ccccc1C(=O)O
KD [1, 7]: > 10000 nM

SMILES: Cc1cc2nc3c(=O)[nH]c(=O)nc-3n(C)c2cc1C
KD ([1]; 36-48 h, RNA <5 nM, apparent): 800 nM

SMILES: CCn1cc(C(=O)O)c(=O)c2ccc(C)nc21
KD ([1]; 36-48 h, RNA <5 nM, apparent): ~ 1 µM

SMILES: O=C(O)/C=C/c1ccccc1
KD [1, 7]: > 10000 nM

SMILES: C[C@H](CCC(=O)O)[C@H]1CC[C@H]2[C@@H]3[C@H](O)C[C@@H]4C[C@H](O)CC[C@]4(C)[C@H]3CC[C@]12C
KD [1, 6]: > 100

The remaining lines, values ahead:

KD ([1]; 36-48 h, RNA <5 nM, apparent): 6.1 nM
binding [2]: weak
binding [3]: yes
binding [4]: no
SMILES: Nc1ccc2cc3ccc(N)cc3nc2c1

binding ([1]; apparent): yes
SMILES: Cc1nccc2c1[nH]c1ccccc12

binding ([1]; apparent): yes
SMILES: Cc1cc(N)c2ccccc2[n+]1CCCCCCCCCC[n+]1c(C)cc(N)c2ccccc21

KD ([1]; 36-48 h, RNA <5 nM, apparent): 4.2 nM
SMILES: C[n+]1cc2c3c(ccc2c2ccc4cc5c(cc4c21)OCO5)OCO3

KD ([1]; 36-48 h, RNA <5 nM, apparent): 2.5 nM
binding [5]: yes
SMILES: COc1ccc2c(c[n+](C)c3c4cc5c(cc4ccc23)OCO5)c1OC
